From US12378243B2, “Quinoline compounds as inhibitors of KRAS” (Incyte Corporation, priority 2021, dated 2025)
pIC50: −log10 of the molar value.

Columns and labels:
[1] = biological target: KRAS G12V mutant (Homo sapiens, UniProt P01116, G12V); test: GDP-GTP exchange assay, KRAS G12V; type: biochemical; conditions: bodipy loaded KRAS G12V 2.5 nM; 3 hours incubation after adding GppNHp-SOS1 mixture; read-out: G12V_exchange
[2] = test system: Caco-2 cells; test: Caco2 assay (permeability, A-B); type: in vitro ADME; conditions: Papp absorptive direction (A-B), test compound 50 μM, 120 minutes at 37° C.
Experimental: Caco-2 cells are grown at 37° C. in an atmosphere of 5% CO2 in DMEM growth medium supplemented with 10% (v/v) fetal bovine serum, 1% (v/v) nonessential amino acids, penicillin (100 U/mL), and streptomycin (100 μg/mL). Confluent cell monolayers are subcultured every 7 days or 4 days for Caco-2 by treatment with 0.05% trypsin containing […]. Caco-2 cells are seeded in 96-well Transwell plates. The seeding density for Caco-2 cells is 14,000 cells/well. DMEM growth medium is replaced every other day after seeding. Cell monolayers are used for transport assays between 22 and 25 days for Caco-2 cells.
Cell culture medium is removed and replaced with HBSS. To measure the TEER, the HBSS is added into the donor compartment (apical side) and receiver compartment (basolateral side). The TEER is measured by using a REMS Autosampler to ensure the integrity of the cell monolayers. Caco-2 cell monolayers with TEER values ≥300 Ω·cm^2 are used for transport experiments. To determine the Papp in the absorptive direction (A-B), solution of test compound (50 μM) in HBSS is added to the donor compartment (apical side), while HBSS solution with 4% BSA is added to the receiver compartment (basolateral side). The apical volume was 0.075 mL, and the basolateral volume is 0.25 mL. The incubation period is 120 minutes at 37° C. in an atmosphere of 5% CO2. At the end of the incubation period, samples from the donor and receiver sides are removed and an equal volume of acetonitrile is added for protein precipitation. The supernatants are collected after centrifugation (3000 rpm, Allegra X-14R Centrifuge from Beckman Coulter, Indianapolis, IN) for LCMS analysis. The permeability value is determined according to the equation:
[formula] • where the flux rate (F, mass/time) is calculated from the slope of cumulative amounts of compound of interest on the receiver side, SA is the surface area of the cell membrane, VD is the donor volume, and MD is the initial amount of the solution in the donor chamber.
The symbol “+” indicates a Caco-2 value of […], “++” indicates a Caco-2 value of >0.5 but ≤1; and “+++” indicates a Caco-2 value of >1. “NA” indicates IC50 not available.

[3] = biological target: KRAS G12D (Homo sapiens, UniProt P01116, G12D); test: GDP-GTP exchange assay, KRAS G12D; type: biochemical; conditions: bodipy-loaded KRAS G12D 2.5 nM, GppNHp 500 uM, SOS1 150 nM; 4 hours pre-incubation, 2 hours incubation; read-out: G12D_exchange
Experimental: Inhibitors were serially diluted in DMSO and a volume of 0.1 μL was transferred to the wells of a black low volume 384-well plate. […] The exchange was initiated by the addition of a 5 μL/well volume containing 1 mM GppNHp and 300 nM SOS1 in assay buffer. […] The reaction plates were incubated at ambient temperature for 2 hours, a time estimated for complete GDP-GTP exchange in the absence of inhibitor.
Either GraphPad prism or Genedata Screener SmartFit was used to analyze the data. The IC50 values were derived by fitting the data to a four parameter logistic equation producing a sigmoidal dose-response curve with a variable Hill coefficient.
“NA” indicates IC50 not available.

Chain of KRAS G12V mutant (P01116 1-188 isoform P01116-2 G12V): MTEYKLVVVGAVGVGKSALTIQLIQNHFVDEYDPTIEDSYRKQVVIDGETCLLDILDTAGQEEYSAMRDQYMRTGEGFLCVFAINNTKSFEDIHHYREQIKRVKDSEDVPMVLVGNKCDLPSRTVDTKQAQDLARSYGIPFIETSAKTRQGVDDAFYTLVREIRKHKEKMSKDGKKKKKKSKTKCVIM
Chain of KRAS G12D (P01116 1-188 isoform P01116-2 G12D): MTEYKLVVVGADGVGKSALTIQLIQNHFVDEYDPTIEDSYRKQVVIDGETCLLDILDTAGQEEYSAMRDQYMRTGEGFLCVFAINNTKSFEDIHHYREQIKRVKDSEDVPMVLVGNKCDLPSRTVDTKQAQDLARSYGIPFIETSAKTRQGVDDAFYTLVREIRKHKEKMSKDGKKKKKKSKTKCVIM

SMILES | pIC50 [1] | Caco-2 ([2]; Table 3) | pIC50 [3] | Caco-2 ([2]; Table 4)
CC(=O)N1CC[C@H](n2ncc3c(O[C@@H](C)[C@@H]4CCCN4C)nc4c(F)c(-c5cccc6cccc(C#N)c56)c(C#N)cc4c32)C[C@H]1CC#N (single isomer, unassigned) [Example 7] | > 7.00 | +++ (a Caco-2 value of >1) | > 7.00 | 
Cc1cc2c(nc(O[C@@H](C)[C@@H]3CCCN3C)c3cc(CN4CCOCC4=O)n([C@H]4[C@H]5CN[C@@H]4C5)c32)c(F)c1-c1cccc2cccc(C#N)c12 (single isomer, unassigned) [Example 8] | > 7.00 | + (a Caco-2 value of 50.5) | > 7.00 | 
CN1CC(F)(COc2nc3c(F)c(-c4cc(O)cc5ccccc45)c(CCC#N)cc3c3c2cc(CCC(=O)N(C)C)n3[C@H]2[C@H]3CN[C@@H]2C3)C1 (single isomer, unassigned) [Example 13] | > 7.00 |  | > 7.00 | 
C[C@H](Oc1nc2c(F)c(-c3cccc4ccc(F)c(F)c34)c(CCC#N)cc2c2c1cc(CCC(=O)N1CCC1)n2[C@H]1[C@H]2CN[C@@H]1C2)[C@@H]1CCCN1C (single isomer, unassigned) [Example 20] | > 7.00 | + (a Caco-2 value of 50.5) | > 7.00 | 
C[C@H](Oc1nc2c(F)c(-c3cccc4cc(F)c(F)cc34)c(CCC#N)cc2c2c1cc(CCC(=O)N1CCC1)n2[C@H]1[C@H]2CN[C@@H]1C2)[C@@H]1CCCN1C (single isomer, unassigned) [Example 21] | > 7.00 | + (a Caco-2 value of 50.5) | > 7.00 | 
CC(=O)N1CC[C@H](n2ncc3c(O[C@@H](C)[C@@H]4CCCN4C)nc4c(F)c(-c5nccc6cccc(C#N)c56)c(Cl)cc4c32)C[C@H]1CC#N (single isomer, unassigned) [Example 23a] | > 7.00 |  | > 7.00 | 
CC(=O)N1CC[C@H](n2ccc3c(O[C@@H](C)[C@@H]4CCCN4C)nc4c(F)c(-c5cccc6cccc(C#N)c56)c(Cl)cc4c32)C[C@H]1CC#N (single isomer, unassigned) [Example 24a] | > 7.00 |  | > 7.00 | 
CC(=O)N1CC[C@H](n2ncc3c(O[C@@H](C)[C@@H]4CCCN4C)nc4c(F)c(-c5nccc6cccc(C#N)c56)c(Cl)cc4c32)C[C@H]1CC#N [Example 23, 1-(1-((2S,4S)-1-Acetyl-2-(cyanomethyl)piperidin-4-yl)-8-chloro-6-fluoro-4-((S)-1-((S)-1-methylpyrrolidin-2-yl)ethoxy)-1H-pyrazolo[4,3-c]quinolin-7-yl)isoquinoline-8-carbonitrile] |  | ++ (a Caco-2 value of >0.5 but ≤1) |  | 
CC(=O)N1CC[C@H](n2ccc3c(O[C@@H](C)[C@@H]4CCCN4C)nc4c(F)c(-c5cccc6cccc(C#N)c56)c(Cl)cc4c32)C[C@H]1CC#N [Example 24, 8-(1-((2S,4S)-1-acetyl-2-(cyanomethyl)piperidin-4-yl)-8-chloro-6-fluoro-4-((S)-1-((S)-1-methylpyrrolidin-2-yl)ethoxy)-1H-pyrrolo[3,2-c]quinolin-7-yl)-1-naphthonitrile] |  | + (a Caco-2 value of 50.5) |  | 

Other lines, results leading:

pIC50 [1] | Caco-2 ([2]; Table 3) | pIC50 [3] | Caco-2 ([2]; Table 4) | SMILES
> 7.00 | + (a Caco-2 value of 50.5) | > 7.00 |  | C[C@H](Oc1nc2c(F)c(-c3csc4ccccc34)c(CCC#N)cc2c2c1cc(CN1CCCC1=O)n2[C@H]1[C@H]2CN[C@@H]1C2)[C@@H]1CCCN1C (single isomer, unassigned) [Example 9]
> 7.00 | + (a Caco-2 value of 50.5) | > 7.00 |  | C[C@@H](CN(C)C)Oc1nc2c(F)c(-c3cccc4ccc(F)cc34)c(CCC#N)cc2c2c1cc(CN1CCCC1=O)n2[C@H]1[C@H]2CN[C@@H]1C2 (single isomer, unassigned) [Example 10]
> 7.00 | + (a Caco-2 value of 50.5) | > 7.00 |  | Cc1cc2c(O[C@@H](C)[C@@H]3CCCN3C)nc3c(F)c(-c4cccc5cccc(C#N)c45)c(CCC#N)cc3c2n1[C@H]1[C@H]2CN[C@@H]1C2 (single isomer, unassigned) [Example 11]
> 7.00 | + (a Caco-2 value of 50.5) | > 7.00 |  | Cc1cc2c(O[C@@H](C)[C@@H]3CCCN3C)nc3c(F)c(-c4cc(O)cc(Cl)c4Cl)c(CCC#N)cc3c2n1[C@H]1[C@H]2CN[C@@H]1C2 (single isomer, unassigned) [Example 12]
> 7.00 | ++ (a Caco-2 value of >0.5 but ≤1) | > 7.00 |  | Cc1cnc(-c2nc3c(F)c(-c4cc(O)cc5ccccc45)c(CCC#N)cc3c3c2cc(C)n3[C@H]2[C@H]3CN[C@@H]2C3)cn1 (single isomer, unassigned) [Example 14]
> 7.00 | + (a Caco-2 value of 50.5) | > 7.00 |  | Cc1cc2c(O[C@@H](C)[C@@H]3CCCN3C)nc3c(F)c(-c4cc(O)cc5ccc(F)cc45)c(CCC#N)cc3c2n1[C@H]1[C@H]2CN[C@@H]1C2 (single isomer, unassigned) [Example 22]
> 7.00 |  | > 7.00 | + (a Caco-2 value of 50.5) | Cc1nc2c(F)c(-c3cccc(Cl)c3Cl)c(CCC#N)cc2c2c1cc(C1CCc3cccc(=O)n31)n2[C@H]1[C@H]2CN[C@@H]1C2 (single isomer, unassigned) [Example 31]
> 7.00 |  | > 7.00 | ++ (a Caco-2 value of >0.5 but ≤1) | CC(=O)N1CCC[C@@H]1c1cc2c(-c3ccnc(C)c3)nc3c(F)c(-c4cccc5c4C(C#N)CCC5)c(C)cc3c2n1[C@H]1[C@H]2CN[C@@H]1C2 (single isomer, unassigned) [Example 35]
> 7.00 |  | > 7.00 | +++ (a Caco-2 value of >1) | CNC(=O)c1ccc(-c2nc3c(F)c(-c4cccc(Cl)c4C)c(CCC#N)cc3c3c2cc([C@@H](C)n2ccncc2=O)n3[C@H]2[C@H]3CN[C@@H]2C3)cn1 (single isomer, unassigned) [Example 36]
> 7.00 |  | > 7.00 | +++ (a Caco-2 value of >1) | Cc1cnc(-c2nc3c(F)c(-c4cccc(Cl)c4C)c(CCC#N)cc3c3c2cc([C@@H](C)n2ccncc2=O)n3[C@H]2[C@H]3CN[C@@H]2C3)cn1 (single isomer, unassigned) [Example 38]
> 7.00 |  | > 7.00 | +++ (a Caco-2 value of >1) | CNC(=O)c1ccc(-c2nc3c(F)c(-c4cccc(Cl)c4Cl)c(CCC#N)cc3c3c2cc([C@@H](C)n2ccncc2=O)n3[C@H]2[C@H]3CN[C@@H]2C3)cc1F (single isomer, unassigned) [Example 54b]
 |  |  | +++ (a Caco-2 value of >1) | Cc1cnc(-c2nc3c(F)c(-c4cccc(Cl)c4C)c(CCC#N)cc3c3c2cc([C@@H](C)N2CCOCC2=O)n3[C@H]2[C@H]3CN[C@@H]2C3)cn1 [Example 44, 3-(1-((1R,4R,5S)-2-Azabicyclo[2.1.1]hexan-5-yl)-7-(3-chloro-2-methylphenyl)-6-fluoro-4-(5-methylpyrazin-2-yl)-2-((R)-1-(3-oxomorpholino)ethyl)-1H-pyrrolo[3,2-c]quinolin-8-yl)propanenitrile]
